Reference: ChEMBL document CHEMBL1138036, “Simplified cyclic analogues of bastadin-5. Structure-activity relationships for modulation of the RyR1/FKBP12 Ca2+ channel complex” (J Med Chem, 2006)

molecular target: RyR1/FKBP12 (Oryctolagus cuniculus); experiment: Antagonist like activity at skeletal junction sarcoplasmic reticulum RyR1/FKBP12 complex assessed as decrease in [3H]ryanodine binding

IC50	SMILES
47 µM	O=C1CCNC(=O)CCc2cc(Br)c(cc2Br)Oc2cc(cc(Br)c2O)CCN1
63 µM	[N-]=[N+]=Nc1cc2ccc1Oc1cc(cc(Br)c1O)CCNC(=O)CC2

molecular target: RyR1/FKBP12 (Oryctolagus cuniculus); experiment: Agonist like activity at skeletal junction sarcoplasmic reticulum RyR1/FKBP12 complex assessed as increase in [3H]ryanodine binding

SMILES	EC50
[N-]=[N+]=Nc1cc2ccc1Oc1cc(cc(Br)c1O)CCNC(=O)CCNC(=O)CC2	20 µM
O=C1CCc2ccc(cc2)Oc2cc(cc(Br)c2O)CCN1	> 100 µM
Nc1cc2ccc1Oc1cc(cc(Br)c1O)CCNC(=O)CCNC(=O)CC2	21 µM
Nc1cc2ccc1Oc1cc(cc(Br)c1O)CCNC(=O)CC2	33 µM
O=C1CCNC(=O)CCc2ccc(c([N+](=O)[O-])c2)Oc2cc(cc(Br)c2O)CCN1	24 µM
COC(=O)c1cc(I)ccc1N=[N+]=[N-]	> 100 µM
[N-]=[N+]=Nc1ccc(I)cc1C(=O)NCCCC[C@H]1CC(=O)NCCc2cc(Br)c(O)c(c2)Oc2ccc(cc2Br)CCC(=O)N1	> 100 µM
[N-]=[N+]=Nc1ccc(I)cc1C(=O)NCCCC[C@H]1CC(=O)NCCc2cc(Br)c(O)c(c2)Oc2cc(Br)c(cc2Br)CCC(=O)N1	6.5 µM
O=C1CCc2ccc(c(I)c2)Oc2cc(cc(Br)c2O)CCN1	28.6 µM
O=C1CCc2cc(Br)c(cc2Br)Oc2cc(cc(Br)c2O)CCN1	> 100 µM
O=C1CCc2ccc(c([N+](=O)[O-])c2)Oc2cc(cc(Br)c2O)CCN1	20.9 µM
O=C1CCc2ccc(c(Br)c2)Oc2cc(cc(Br)c2O)CCN1	10.9 µM
